Measurements reported in patent US20160201132A1, “GENE EXPRESSION BIOMARKERS OF LAQUINIMOD RESPONSIVENESS” (Teva Pharmaceutical Industries Ltd., priority 2013, published 2016).

Assays:
ITGB1 = test: Western blot verification of ITGB1 protein in PBMC of LAQ-treated RRMS patients; type: in vivo, human; details: six months of LAQ treatment vs baseline, n=5
Description: (§1) FIG. 10: Expression of TGFb, ITGB1 and CXCR1 in RRMS patients treated with LAQ. Protein extracts were prepared from PBMCs samples derived from RRMS patients before treatment (black bars) and compared to PBMCs samples of the same patients after six months of LAQ treatment (white bars). The signal intensity of a protein bands were quantified by Quantity One 4.6.9 software. The resultant background-subtracted values of protein expression were normalized to those of Tubulin and then calculated as the relative protein levels for each patient before or after LAQ treatment. The blot images in A, B and C are representative of two out of five analyzed patients showing down regulation of TGFb, ITGB1 and CXCR1, respectively as also quantified by densitometry of bands analyzed from five patients. Data are presented as mean±SEM. Statistically significant differences are marked in graphs (n=5, paired one-tailed t-test). Protein fractions were purified from PBMC of 5 patients at baseline and after six months of LAQ treatment. Proteins were extracted from TRIZOL fractions and solubilized following the method reported by Hummon et al., 2007 (Hummon et al., 2007). […] Blots were analyzed by standard chemi-luminescence (Supersignal Kit, Pierce, Rockford, Ill., USA) and visualization was done by ChemiDoc™ XRS System (Bio-Rad).

RRMS patients [1] = details: cited from earlier work
PAI-1 (Serpine 1) = test: Western blot verification of PAI-1 (Serpine 1) protein in PBMC of LAQ-treated patients; type: in vivo, human; details: four out of five patients, after 6 months of LAQ treatment
Description: FIG. 6: Expression of PAI-1 (Serpine 1) in PBMCs of patients following treatment with LAQ. Protein samples were prepared from phenol/ethanol fractions of PBMCs derived from patients after 6 month of LAQ treatment (+) and compare to PBMCs samples of the same patients before treatment (−) (A). From each sample […] was separated on 10% SDS-PAGE. Blots were incubated with Rabbit a-PAI-1 (1:500) and mouse Tubulin (1:500). The signal intensities of a protein band and its surrounding background were scanned for each protein and quantified by using Quantity One 4.6.9 software. The resultant background-subtracted values of protein expression were normalized to those of Tubulin and then plotted as the relative protein levels for each patient with or without LAQ treatment (B).
For verification of key genes on protein level Western blot analysis was performed. Supernatant was collected and protein concentration was determined using a Bradford assay (Pierce, Rockford, Ill., USA) according the manufacturer's guidelines. Equal amounts of protein were suspended in sample buffer and boiled for 5 min. Cell lysates were resolved on 10% SDS-polyacrylamide gel electrophoresis (PAGE). […] The blots were then washed three times with TBST buffer and analyzed by standard chemiluminescence (Supersignal Kit, Pierce, Rockford, Ill., USA) according to the company's protocol.

CXCR1 = test: Western blot verification of CXCR1 protein in PBMC of LAQ-treated RRMS patients; type: in vivo, human; details: six months of LAQ treatment vs baseline, n=5
Description: as §1

RRMS patients [2] = details: 106 RRMS patients vs 102 placebo treated RRMS patients; cited from earlier work

Structure (SMILES): CCN(C(=O)c1c(O)c2c(Cl)cccc2n(C)c1=O)c1ccccc1 [LAQ, 5-chloro-N-ethyl-4-hydroxy-1-methyl-2-oxo-N-phenyl-1,2-dihydroquinoline-3-carboxamide]
- down regulation of ITGB1 protein (ITGB1): 40%
- annualized relapse rate (RRMS patients [1]; RRMS patients treated for 24 months): modestly decreased
- safety and tolerability profile (RRMS patients [1]; two phase III trials (BRAVO, ALLEGRO)): favorable
- reduced expression of PAI-1 protein (band intensities normalized against tubulin) (PAI-1 (Serpine 1)): 30-50%
- down regulation of CXCR1 protein (CXCR1): 24.7%
- reduction in the cumulative number of gadolinium enhanced lesions in brain MRI (RRMS patients [2]): about 40%
